Paper PMC6753678, “Fueling Open Innovation for Malaria Transmission-Blocking Drugs: Hundreds of Molecules Targeting Early Parasite Mosquito Stages” (Frontiers in Microbiology, 2019)
Like-named read-outs stand apart in the source and are kept apart here.

Tests used:
[1] = test system: 3D7-strain P. falciparum asexual parasites; assay: P. falciparum asexual growth inhibition assay (Pf GIA); type: cell-based, Plasmodium falciparum; details: dose response confirmation; read-out: Pf asexual growth inhibition assays IC50
Summary of the method: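 3D7 parasites at 0.25% parasitemia, 2% hematocrit were exposed to compounds in dose response for 72 h at 37°C under 5% CO2, 5% O2. Viability read as parasite LDH activity (nitro blue tetrazolium, A650) after freeze-thaw; inhibition scaled to chloroquine (50 μM) and DMSO controls, mean of three biological replicates.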

HepG2 cells = assay: HepG2 cytotoxicity assay; details: for IC50: read-out: HepG2 cytotoxicity assay IC50, dose response confirmation; for Pb ODA (this manuscript) HepG2 cytoxicity: HepG2 cytotoxicity listed with the Pb ODA data set (this manuscript)
Summary of the method: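 HepG2 cells, 2,500 per well in MEM with 10% FBS and 1% NEAA, exposed to compounds for 48 h at 37°C, 5% CO2. Viability read by fluorescence; percent inhibition relative to 50 μM doxorubicin and DMSO controls.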

[2] = test system: P. berghei ookinete development; details: for % inhibition, Replicate A / % inhibition, Replicate B: primary screen at 1 μM
[3] = read-out: Pb ODA IC50, this manuscript
[4] = read-out: Pb Ookinete development assay IC50, dose response confirmation
[5] = read-out: Pb ODA (this manuscript) IC50, P. berghei ookinete development assay, this manuscript
[6] = HepG2 values of the three screens unified
[7] = read-out: Pb Ookinete development assay IC50

Cl.c1ccc(Oc2ccc(Nc3nncc4ccccc34)cc2)cc1 [TCMDC-137229]
IC50 [1]: 544 nM
IC50 (HepG2 cells): 100000 nM
Unified cytotox (HepG2 cells; unified HepG2 value across the three screens): 100.00 µM
Is compound selective in assay? Pb ODA active? ([2]; 1: YES, 0: NO): 1 (1: YES)
% inhibition, Replicate A [2]: 75.48%
% inhibition, Replicate B [2]: 62.89%
IC50 [2, 3]: 690 nM
IC50 [2, 4]: 692 nM

Cc1c(Cc2ccccc2Br)cnc2nc(N)nc(N)c12.Cl [TCMDC-137244]
IC50 [1]: 4 nM
Pb ODA (this manuscript) HepG2 cytoxicity (HepG2 cells): 0.00776 µM
IC50 (HepG2 cells): 7.76 nM
Is compound selective in assay? Pb ODA active? [2]: 0 (key: 1: YES; 0: NO)
% inhibition, Replicate A [2]: 44.00%
% inhibition, Replicate B [2]: 63.36%
IC50 [2, 5]: 8490 nM
IC50 [2, 4]: 8490 nM

Cc1cc(=O)c(-c2ccc(Oc3cccc(Cl)c3)cc2)c(C)[nH]1 [TCMDC-137265]
IC50 [1]: 1850 nM
HepG2 cytoxicity (Pb ODA, this manuscript) (HepG2 cells): 3.72 µM
Unified cytotox (HepG2 cells; [6]): 3.72 µM
IC50 (HepG2 cells): 3720 nM
Is compound selective in assay? Pb ODA active? ([2]; 1: YES, 0: NO): 0 (0: NO)
% inhibition, Replicate A [2]: 110.80%
% inhibition, Replicate B [2]: 102.47%
IC50 [2, 3]: 1280 nM
IC50 [2, 4]: 1280 nM

Cc1cc(=O)c(-c2ccc(Oc3cccc(OC(F)(F)F)c3)cc2)c(C)[nH]1 [TCMDC-137266]
IC50 [1]: 99 nM
Pb ODA (this manuscript) HepG2 cytoxicity (HepG2 cells): 10.72 µM
IC50 (HepG2 cells): 10700 nM
Is compound selective in assay? Pb ODA active? [2]: 1 (key: 1: YES; 0: NO)
% inhibition, Replicate A [2]: 74.10%
% inhibition, Replicate B [2]: 97.06%
IC50 [2, 5]: 200 nM
IC50 [2, 4]: 205 nM

CCCCCCCCCc1c(C)[nH]c2ccccc2c1=O [TCMDC-137268]
IC50 [1]: 168 nM
Pb ODA (this manuscript) HepG2 cytoxicity (HepG2 cells): 67.61 µM
IC50 (HepG2 cells): 67600 nM
Is compound selective in assay? Pb ODA active? [2]: 1 (key: 1: YES; 0: NO)
% inhibition, Replicate A [2]: 77.84%
% inhibition, Replicate B [2]: 91.25%
IC50 [2, 5]: 390 nM
IC50 [2, 4]: 386 nM

CCCCCCCc1c(C)[nH]c2ccc(F)cc2c1=O [TCMDC-137269]
IC50 [1]: 208 nM
Pb ODA (this manuscript) HepG2 cytoxicity (HepG2 cells): 100.00 µM
IC50 (HepG2 cells): 100000 nM
Is compound selective in assay? Pb ODA active? [2]: 1 (key: 1: YES; 0: NO)
% inhibition, Replicate A [2]: 57.79%
% inhibition, Replicate B [2]: 78.85%
IC50 [2, 5]: 320 nM
IC50 [2, 4]: 319 nM

CCC(CC)n1c(C)cc2c3c(N)nc(N)nc3ccc21 [TCMDC-137283]
IC50 [1]: < 0.2 nM
HepG2 cytoxicity (Pb ODA, this manuscript) (HepG2 cells): 0.0017 µM
Unified cytotox (HepG2 cells; [6]): 0.0017 µM
IC50 (HepG2 cells): 1.7 nM
Is compound selective in assay? Pb ODA active? ([2]; 1: YES, 0: NO): 0 (0: NO)
% inhibition, Replicate A [2]: 93.53%
% inhibition, Replicate B [2]: 103.53%
IC50 [2, 3]: 850 nM
IC50 [2, 4]: 846 nM

CCN(CC)S(=O)(=O)n1ncc2c3c(N)nc(N)nc3ccc21.Cl [TCMDC-137302]
IC50 [1]: 79 nM
Pb ODA (this manuscript) HepG2 cytoxicity (HepG2 cells): 0.0531 µM
IC50 (HepG2 cells): 53.1 nM
Is compound selective in assay? Pb ODA active? [2]: 0 (key: 1: YES; 0: NO)
% inhibition, Replicate A [2]: 53.62%
% inhibition, Replicate B [2]: 57.06%
IC50 [2, 4]: 2000 nM

CCc1cc2c3c(N)nc(N)nc3ccc2n1C(C)(C)C [TCMDC-137306]
IC50 [1]: 3.2 nM
HepG2 cytoxicity (Pb ODA, this manuscript) (HepG2 cells): 0.0017 µM
Unified cytotox (HepG2 cells; [6]): 0.0017 µM
IC50 (HepG2 cells): 1.7 nM
Is compound selective in assay? Pb ODA active? ([2]; 1: YES, 0: NO): 0 (0: NO)
% inhibition, Replicate A [2]: 81.63%
% inhibition, Replicate B [2]: 92.90%
IC50 [2, 3]: 1080 nM
IC50 [2, 4]: 1080 nM

CCC(C)(C)n1c(C)cc2c3c(N)nc(N)nc3ccc21 [TCMDC-137307]
IC50 [1]: 0.9 nM
HepG2 cytoxicity (Pb ODA, this manuscript) (HepG2 cells): 0.00169 µM
Unified cytotox (HepG2 cells; [6]): 0.00169 µM
IC50 (HepG2 cells): 1.69 nM
% inhibition, Replicate A [2]: 47.56%
% inhibition, Replicate B [2]: 73.34%
IC50 ([2]; read-out: Pb ODA IC50): 1190 nM
IC50 [2, 7]: 1190 nM

CCc1cc2c3c(N)nc(N)nc3ccc2n1C(C)CC (stereo not shown) [TCMDC-137308]
IC50 [1]: < 0.2 nM
HepG2 cytoxicity (Pb ODA, this manuscript) (HepG2 cells): 0.0017 µM
Unified cytotox (HepG2 cells; [6]): 0.0017 µM
IC50 (HepG2 cells): 1.7 nM
Is compound selective in assay? Pb ODA active? ([2]; 1: YES, 0: NO): 0 (0: NO)
% inhibition, Replicate A [2]: 67.31%
% inhibition, Replicate B [2]: 61.54%
IC50 [2, 3]: 690 nM
IC50 [2, 4]: 694 nM

CCCc1cc2c3c(N)nc(N)nc3ccc2n1C(CC)CC [TCMDC-137312]
IC50 [1]: < 0.2 nM
HepG2 cytoxicity (Pb ODA, this manuscript) (HepG2 cells): 0.0017 µM
Unified cytotox (HepG2 cells; [6]): 0.0017 µM
IC50 (HepG2 cells): 1.7 nM
Is compound selective in assay? Pb ODA active? ([2]; 1: YES, 0: NO): 0 (0: NO)
% inhibition, Replicate A [2]: 47.03%
% inhibition, Replicate B [2]: 71.34%
IC50 [2, 3]: 460 nM
IC50 [2, 4]: 463 nM

CCC(CC)n1c(COC)cc2c3c(N)nc(N)nc3ccc21 [TCMDC-137313]
IC50 [1]: < 0.2 nM
HepG2 cytoxicity (Pb ODA, this manuscript) (HepG2 cells): 0.0017 µM
Unified cytotox (HepG2 cells; [6]): 0.0017 µM
IC50 (HepG2 cells): 1.7 nM
Is compound selective in assay? Pb ODA active? ([2]; 1: YES, 0: NO): 0 (0: NO)
% inhibition, Replicate A [2]: 74.51%
% inhibition, Replicate B [2]: 66.56%
IC50 [2, 3]: 1350 nM
IC50 [2, 4]: 1350 nM

COc1cc(Cn2ccc3c4c(N)nc(N)nc4ccc32)cc(OC)c1OC [TCMDC-137341]
IC50 [1]: < 0.3 nM
HepG2 cytoxicity (Pb ODA, this manuscript) (HepG2 cells): 0.0017 µM
Unified cytotox (HepG2 cells; [6]): 0.0017 µM
IC50 (HepG2 cells): 1.7 nM
% inhibition, Replicate A [2]: 61.35%
% inhibition, Replicate B [2]: 58.11%
IC50 ([2]; read-out: Pb ODA IC50): 560 nM
IC50 [2, 7]: 556 nM

CNCCN(C)C(=O)Oc1c(Br)c(C)nc(C)c1-c1ccc(Oc2ccc(OC(F)(F)F)cc2)cc1.Cl [TCMDC-137377]
IC50 [1]: 71 nM
Pb ODA (this manuscript) HepG2 cytoxicity (HepG2 cells): 8.32 µM
IC50 (HepG2 cells): 8320 nM
Is compound selective in assay? Pb ODA active? [2]: 0 (key: 1: YES; 0: NO)
% inhibition, Replicate A [2]: 132.58%
% inhibition, Replicate B [2]: 124.21%
IC50 [2, 5]: 1480 nM
IC50 [2, 4]: 1480 nM

Cc1[nH]c(C)c(-c2ccc(Oc3ccc(Cl)cc3)cc2)c(=O)c1C [TCMDC-137378]
IC50 [1]: < 0.2 nM
HepG2 cytoxicity (Pb ODA, this manuscript) (HepG2 cells): 8.61 µM
Unified cytotox (HepG2 cells; [6]): 8.61 µM
IC50 (HepG2 cells): 8610 nM
Is compound selective in assay? Pb ODA active? ([2]; 1: YES, 0: NO): 1 (1: YES)
% inhibition, Replicate A [2]: 87.44%
% inhibition, Replicate B [2]: 100.49%
IC50 [2, 3]: 640 nM
IC50 [2, 4]: 636 nM

Cc1nc(C)c(-c2ccc(Oc3ccc(OC(F)(F)F)cc3)cc2)c(OC(=O)c2ccccc2)c1Cl [TCMDC-137380]
IC50 [1]: 173 nM
Pb ODA (this manuscript) HepG2 cytoxicity (HepG2 cells): 37.58 µM
IC50 (HepG2 cells): 37600 nM
Is compound selective in assay? Pb ODA active? [2]: 1 (key: 1: YES; 0: NO)
% inhibition, Replicate A [2]: 56.36%
% inhibition, Replicate B [2]: 103.63%
IC50 [2, 4]: 860 nM

CC(=O)Oc1c(Cl)c(C)nc(C)c1-c1ccc(Oc2ccc(Cl)cc2)cc1 [TCMDC-137381]
IC50 [1]: 34 nM
Pb ODA (this manuscript) HepG2 cytoxicity (HepG2 cells): 2.63 µM
IC50 (HepG2 cells): 2630 nM
Is compound selective in assay? Pb ODA active? [2]: 1 (key: 1: YES; 0: NO)
% inhibition, Replicate A [2]: 96.93%
% inhibition, Replicate B [2]: 129.91%
IC50 [2, 5]: 100 nM
IC50 [2, 4]: 98 nM

Cc1nc(C)c(-c2ccc(Oc3ccc(OC(F)(F)F)cc3)cc2)c(OC(=O)c2ccc(CN(C)C)cc2)c1Cl [TCMDC-137382]
IC50 [1]: 127 nM
Pb ODA (this manuscript) HepG2 cytoxicity (HepG2 cells): 24.55 µM
IC50 (HepG2 cells): 24600 nM
Is compound selective in assay? Pb ODA active? [2]: 1 (key: 1: YES; 0: NO)
% inhibition, Replicate A [2]: 93.07%
% inhibition, Replicate B [2]: 108.44%
IC50 [2, 5]: 460 nM
IC50 [2, 4]: 462 nM
